Assay results published in patent US20060211668A1, “Use of ciclesonide for the treatment of inflammatory bowel diseases” (ALTANA PHARMA AG, priority 2003, published 2006).

Legend:
[1] = system: TNBS-induced Colits in the rat; assay: TNBS-induced colitis in the rat, intrarectal administration; type: in vivo; settings: for max Colon width: lowest dose that impacts the parameter to a relevant extent (inhibition of the TNBS-induced increase): TNBS 30 mg/kg rectally, compound intrarectal twice daily days -1 to +2, sacrificed day 2; for Thymus weight: lowest dose that impacts the parameter to a relevant extent (amplification of the TNBS-induced decrease) / Weight of adrenal glands: lowest dose that impacts the parameter to a relevant extent (inhibition of the TNBS-induced increase): TNBS colitis, intrarectal twice daily, side effect parameter
Description: As an animal model of Inflammatory Bowel Disease, the TNBS-induced Colits in the rat had been used.
48 h fasted rats (220-250 g b.w.) received rectally 0,9 ml of a solution consisting of 30% ethanol, 30 mg/kg TNBS (Trinitrobenzoesulfonic acid) in an oral distance of 8-9 cm from the anus. Compound administration days −1 to +2. Animals were sacrified on day 2. For intrarectal administration the compounds were solved in 1% ethanol, 10% Propyleneglycol and 20% Cyclodextrin. The used range of concentrations was identical for all compounds. Intrarectal administration schedule: twice daily. Compounds used: Ciclesonide and for comparison, Budesonide and Dexamethasone.
As parameters for the estimation of the pharmacological effects of the compounds, max. colon width had been used. As for the estimation of potential side effects, the weights of thymus and adrenal glands have been registrated.
The efficacy of a treatment was calculated on the reference of controls that received either no TNBS or TNBS rectally, establishing the range of 100 to 0% inhibition, respectively, in the drug screening.

[2] = human; cited from earlier work

Row | Compound | max Colon width: lowest dose that impacts the parameter to a relevant extent (inhibition of the TNBS-induced increase) [1] | Oral bioavailability [2] | Thymus weight: lowest dose that impacts the parameter to a relevant extent (amplification of the TNBS-induced decrease) ([1]; highest assessed dose 6.9) | Weight of adrenal glands: lowest dose that impacts the parameter to a relevant extent (inhibition of the TNBS-induced increase) ([1]; highest assessed dose 6.9) | Thymus weight: lowest dose that impacts the parameter to a relevant extent (amplification of the TNBS-induced decrease) ([1]; highest assessed dose 6.9, listed as ciclesonide) | Weight of adrenal glands: lowest dose that impacts the parameter to a relevant extent (inhibition of the TNBS-induced increase) ([1]; highest assessed dose 6.9, listed as budenoside)
1 | C[C@@H]1C[C@H]2[C@@H]3CCC4=CC(=O)C=C[C@]4(C)[C@@]3(F)[C@@H](O)C[C@]2(C)[C@@]1(O)C(=O)CO [Dexamethasone] | 0.69 μmol/animal | – | – | – | – | –
2 | CC(C)C(=O)OCC(=O)[C@@]12O[C@H](C3CCCCC3)O[C@@H]1C[C@H]1[C@@H]3CCC4=CC(=O)C=C[C@]4(C)[C@H]3[C@@H](O)C[C@@]12C [Ciclesonide, [11β,16α(R)]-16,17-[(cyclohexylmethylene)bis(oxy)]-11-hydroxy-21-(2-methyl-1-oxopropoxy)pregna-1,4-diene-3,20-dione] | 2.3 μmol/animal | below 1% | n.e. @ 6.9 μmol/animal | 2.3 μmol/animal | > 6.9 μmol/animal | –
3 | CCCC1O[C@@H]2C[C@H]3[C@@H]4CCC5=CC(=O)C=C[C@]5(C)[C@H]4[C@@H](O)C[C@]3(C)[C@]2(C(=O)CO)O1 (stereo partly shown) [Budesonide] | 2.3-6.9 μmol/animal | – | 2.3 μmol/animal | n.e. @ 6.9 μmol/animal | – | does not reverse
